Reference: patent US20090036497A1, “ECTOPARASITE CONTROL METHOD” (priority 2007, published 2009)

Columns and labels:
[1] = tested on: cat flea (Ctenocephalides felis Bouche); experiment: In vivo evaluation against artificial infestations with cat fleas on mice; details: CD-1 mouse, 10 mg/kg oral in propylene glycol/glycerol formal (60:40), fleas applied 2 hours after dosing, evaluated 48 hours after flea application
Experimental: In vivo Evaluation Against Artificial Infestations With Cat Fleas (C. felis) on Mice
For evaluating control of the cat flea (Ctenocephalides felis Bouche), a CD-1® mouse (about 30 g, male, obtained from Charles River Laboratories, Wilmington, Mass.) was orally dosed with test compound in an amount of 10 mg/kg solubilized in propylene glycol/glycerol formal (60:40). Two hours after oral administration of the test compound, approximately 8 to 16 adult fleas were applied to each mouse. The fleas were then evaluated for mortality 48 hours after flea application to the mouse. 3-bromo-1-(3-chloro-2-pyridinyl)-N-[4-cyano-2-methyl-6-[(methylamino)carbonyl]phenyl]-1H-pyrazole-5-carboxamide caused 45% mortality.

Cat Fleas (C. felis) = experiment: In vivo evaluation against artificial infestations with cat fleas on dogs; details: for Flea efficacy compared to the untreated control: topical line-on (test compound 60 mg/kg in NMP); for Flea efficacy (%) compared to the untreated control: topical line-on, test compound 60 mg/kg in NMP
Description: (§1) In vivo evaluation Against Artificial Infestations With Cat Fleas (C. felis) and Brown Dog Ticks (R. sanguineus) on Dogs
(§2) Twenty five dogs were used in this study that investigated the efficacy of test compound (3-bromo-1-(3-chloro-2-pyridinyl)-N-[4-cyano-2-methyl-6-[(methylamino)carbonyl]phenyl]-1H-pyrazole-5-carboxamide) against fleas and ticks. Two groups (one treated and one untreated) of five dogs were used to evaluate the flea efficacy whilst two groups of five dogs (one treated and one untreated) were used to investigate the tick efficacy. The dogs in the respective groups were infested weekly with 40 unfed adult ticks and 100 cat fleas. One group was treated with ADVANTIX and served as a positive control. The dogs in this group were infested simultaneously with fleas and ticks. Test compound was formulated in NMP. The treatment was applied topically via syringe on the dorsal line of the animals as a line-on at 60 mg/kg dose rate. The efficacy of the compound was assessed by weekly tick and flea counts. The weekly counts generated in the treated groups were compared to the positive and negative untreated control (UTC) group counts to evaluate efficacy of Test compound.

[2] = tested on: Brown Dog Ticks (R. sanguineus); experiment: In vivo evaluation against artificial infestations with brown dog ticks on dogs; details: for Tick efficacy (%) compared to the untreated control: topical line-on, test compound 60 mg/kg in NMP
Description: as §1, §2

adult H. irritans exigua = experiment: Adult H. irritans exigua feeding assay (blood meal assay); type: in vivo
Experimental: Adult H. irritans exigua Feeding Assay
A blood meal assay was used to determine the LC50 for test compound (3-bromo-1-(3-chloro-2-pyridinyl)-N-[4-cyano-2-methyl-6-[(methylamino)carbonyl]phenyl]-1H-pyrazole-5-carboxamide) on adult H.irritans exigua. Six (6) serial dilutions of the test compound were prepared in decoagulated bovine blood that was stored refrigerated. Ivermectin was included as a positive control compound and a negative control was included in each assay. Flies were collected with a net immediately before each assay from yarded commercial cattle. About 100 adults were introduced into a mesh cage (30×30×30 cm) containing one cotton gauze (4×4×1 cm) soaked in one blood/insecticide concentration. There were 3 replicate cages of each blood/insecticide concentration. Blood gauzes were replaced every 12 hours. The untreated control cages received untreated decoagulated blood. All cages were labelled and stored for 72 hours at 25-27° C. in the dark at ambient relative humidity (70-85%). […] Data was subjected to log-probit analysis to determine the LC50 if there is a dose response in the assay.

[3] = 200 ppb in bovine blood, exposure time 7 hr
[4] = 200 ppb in bovine blood, exposure time 17 hr
[5] = 200 ppb in bovine blood, exposure time 24 hr
[6] = 400 ppb in bovine blood, exposure time 7 hr
[7] = 400 ppb in bovine blood, exposure time 17 hr
[8] = 400 ppb in bovine blood, exposure time 24 hr
[9] = 600 ppb in bovine blood, exposure time 7 hr
[10] = 600 ppb in bovine blood, exposure time 17 hr
[11] = 600 ppb in bovine blood, exposure time 24 hr

CNC(=O)c1cc(C#N)cc(C)c1NC(=O)c1cc(Br)nn1-c1ncccc1Cl [Test compound, 3-bromo-1-(3-chloro-2-pyridinyl)-N-[4-cyano-2-methyl-6-[(methylamino)carbonyl]phenyl]-1H-pyrazole-5-carboxamide]
flea mortality [1]: 45% | Flea efficacy compared to the untreated control (Cat Fleas (C. felis); 2 days post-treatment): over 99.5% | Flea efficacy compared to the untreated control (Cat Fleas (C. felis); 9 days post-treatment): over 99.5% | Flea efficacy compared to the untreated control (Cat Fleas (C. felis); 16 days post-treatment): over 99.5% | Flea efficacy compared to the untreated control (Cat Fleas (C. felis); 30 days post-treatment): 97.3% | Flea efficacy (%) compared to the untreated control (Cat Fleas (C. felis); Day 2): 99.6% | Flea efficacy (%) compared to the untreated control (Cat Fleas (C. felis); Day 9): 99.7% | Flea efficacy (%) compared to the untreated control (Cat Fleas (C. felis); Day 16): 99.7% | Flea efficacy (%) compared to the untreated control (Cat Fleas (C. felis); Day 23): 98.7% | Flea efficacy (%) compared to the untreated control (Cat Fleas (C. felis); Day 29): 97.3% | Tick efficacy higher than the ADVANTIX ([2]; 48 hours after treatment, difference to ADVANTIX): 30% | Tick efficacy compared to the negative control ([2]; topical line-on (test compound 60 mg/kg in NMP), 48 hours after treatment): 74% | Tick efficacy compared to the untreated control ([2]; topical line-on (test compound 60 mg/kg in NMP), 9 days post-treatment): over 94.9% | Tick efficacy compared to the untreated control ([2]; topical line-on (test compound 60 mg/kg in NMP), 16 days post-treatment): 90.5% | Tick efficacy compared to the untreated control ([2]; topical line-on (test compound 60 mg/kg in NMP), 23 days post-treatment): 90.6% | Tick efficacy compared to the untreated control ([2]; topical line-on (test compound 60 mg/kg in NMP), 30 days post treatment): 86.2% | Tick efficacy (%) compared to the untreated control ([2]; Day 2): 74.0% | Tick efficacy (%) compared to the untreated control ([2]; Day 9): 94.9% | Tick efficacy (%) compared to the untreated control ([2]; Day 16): 95.0% | Tick efficacy (%) compared to the untreated control ([2]; Day 23): 90.6% | Tick efficacy (%) compared to the untreated control ([2]; Day 29): 86.2% | % Adult mortality (adult H. irritans exigua; [3]): 77.3% | % Adult mortality (adult H. irritans exigua; [4]): 78.8% | % Adult mortality (adult H. irritans exigua; [5]): 80.3% | % Adult mortality (adult H. irritans exigua; [6]): 78.8% | % Adult mortality (adult H. irritans exigua; [7]): 89.8% | % Adult mortality (adult H. irritans exigua; [8]): 94.9% | % Adult mortality (adult H. irritans exigua; [9]): 80.5% | % Adult mortality (adult H. irritans exigua; [10]): 94.7% | % Adult mortality (adult H. irritans exigua; [11]): 96.5%

22,23-dihydroavermectin B1 [Ivermectin, reference compound]
% Adult mortality (adult H. irritans exigua; [3]): 78.5% | % Adult mortality (adult H. irritans exigua; [4]): 91.8% | % Adult mortality (adult H. irritans exigua; [5]): 93.1% | % Adult mortality (adult H. irritans exigua; [6]): 80.1% | % Adult mortality (adult H. irritans exigua; [7]): 94.2% | % Adult mortality (adult H. irritans exigua; [8]): 98.0% | % Adult mortality (adult H. irritans exigua; [9]): 86.0% | % Adult mortality (adult H. irritans exigua; [10]): 95.5% | % Adult mortality (adult H. irritans exigua; [11]): 100.0%
